Test results as given in PMC11732138, “Gold complex compounds that inhibit drug-resistant Staphylococcus aureus by targeting thioredoxin reductase” (Frontiers in Antibiotics, 2023).
Values after ≈ are worked out from the molar mass of the structure shown. “Also recorded” adds a separate entry of the source. Like-named read-outs stand apart in the source and are kept apart here.

Tests used:
[1] = Compound solubility in DMSO; type: physicochemical; conditions: organic solvent or mixture, turbidity at 540 nm, read-out: concentration at which reduced solubility began in DMSO
Description: To test compound solubility, stock solutions were made in triplicate at 50 mg/mL in DMSO. Two-fold serial dilutions of the test compounds were prepared at 50 μL volume in a 96-well assay plate and were kept in the incubator for 1 h. After incubation, the absorbance was measured at 540 nm using a Vmax microplate reader (Molecular Devices, Sunnyvale, CA, USA.) to detect turbidity.

S. aureus TrxR = S. aureus TrxR (Staphylococcus aureus, UniProt P66011); assay: TrxR (TrxB) enzymatic assay, DTNB to TNB conversion
Description: TrxR specific inhibitory activity was evaluated using 40 μL of S. aureus TrxR enzyme (0.5 μg/μL) per 200 mL of the reaction mixture for 15 minutes, comparing auranofin to other sulfur-containing compounds (all tested at 10 μg/mL), including known anti-S. aureus compounds.
For the screening assay, diluted TrxR assay buffer (Cayman Chemical, Ann Arbor, MI) (100 μL) was mixed with the investigational compounds (20 μL) in a 96 well-plate format and combined with Sa-TrxB (40 μL; 0.5 μg/mL), DTNB (20 μL) and NADPH (20 μL). The reaction entailed combining NADPH and Sa-TrxB with DTNB, which was converted to TNB, producing a yellow color.

[2] = test system: renal proximal tubule epithelial cells; assay: Renal proximal tubule epithelial cell toxicity; type: cell-based, human
[3] = test system: human primary hepatocytes; assay: Human primary hepatocytes toxicity; type: cell-based; conditions: 24 h, WST1
Description: Human primary hepatocytes toxicity. Cryopreserved human primary hepatocytes were purchased from the Cell Resource Core at Massachusetts General Hospital (Boston, MA, USA). Collagen sandwiched configuration was used to culture the thawed cells in 24-well plates. The 24-well plates were coated with rat tail collagen type I (Cell Recourse Core, MGH) and incubated for an hour before 4 x 10^5 live cells were plated and incubated at 37°C with 5% CO2 for 1 h to allow cells to attach to the collagen gel. After incubation, the medium was removed along with dead cells, and the remaining cells received 0.5 mL of hepatocyte culture medium containing Dulbecco’s modified Eagle’s medium (DMEM) media supplemented with 10% FBS, 0.5 U/mL insulin, 14 ng/mL glucagon, 20 ng/mL EGF, 7.5 µg/mL hydrocortisone and 200 U/mL penicillin-streptomycin. The cell cultures were incubated in a humidified, 5% CO2 incubator at 37°C. After 24 h, a top layer of collagen gel was poured over the hepatocytes attached to collagen on the bottom of the plate, making a sandwich model. After 1 h, investigational compounds at the designated concentrations were added and incubated for 24 h. Post incubation, hepatocyte WST1 (Roche, Basel, Switzerland) was added and incubated for 4 h. Cell staining was measured by recording the absorbance at 420 nm, measured using a Vmax microplate reader (Molecular Devices, San Jose, CA, USA.), and data were plotted using GraphPad Prism. Cells were tested in triplicate.

[4] = Compound solubility in PBS; type: physicochemical; conditions: aqueous buffer
Description: Compound solubility in PBS. Compound solubility was measured in PBS. Briefly, serial dilutions of test compounds were prepared in DMSO at 100x the final concentration. Test compound solutions were diluted 100-fold into PBS in a 96-well plate and mixed. After 2 h, the presence of precipitate was detected by measuring absorbance at 540 nm.

hERG channel = hERG channel (Homo sapiens, UniProt Q12809); assay: hERG measurement (QPatch HTX patch clamp)
Description: QPatch HTX system (Sophion Biosciences A/S, Ballerup, Denmark) was used to examine hERG signaling (Cyprotex, Watertown, MA, USA). The system was primed with appropriate extracellular (NaCl, KCl, CaCl2, MgCl2, D-glucose, HEPES, pH 7.4) and intracellular (KCl, MgCl2, EGTA, MgATP, HEPES, pH 7.2) solutions before conducting the study in a 48 well plate (QPlate, Sophion Biosciences A/S, Ballerup, Denmark). All cell suspensions, buffers, and test compound solutions were kept at room temperature during the experiment. HEK293 cells stably transfected with hERG cDNA were washed and positioned into each well (recording chamber) of the QPlate. The QPatch system follows the general principles of conventional whole-cell patch-clamping: a high resistance seal is formed between the patch electrode, and an individual cell, the membrane across the electrode tip is then ruptured, and the whole-cell patch-clamp configuration is established. The standard voltage profile was as follows: step from -80 mV to –50 mV for 200 ms, +20 mV for 4.8 s, step to -50 mV for 5 s, then stepped to the holding potential of -80 mV. The step from -80 mV to the test command (+20 mV) results in an outward current (i.e., current flows out of the cell), and the step from the test command (+20 mV) to -50 mV results in the tail current (the tail current represents deactivation of the current overtime). Compound dilutions were prepared by diluting a DMSO solution (default 10 mM), followed by dilution into an extracellular buffer such that the final concentrations tested were 0.1, 1, and 10 μM (final DMSO concentration 0.1%). Perfusion solutions contained 0.05% Pluronic F-68 and were stored at room temperature for the duration of the experiment each day. The voltage protocol was run and recorded continuously during the experiment. Cells were treated with a vehicle for 3 min (i.e., 0.1% DMSO) followed by three increasing test substance concentrations (0.1, 1, and 10 μM). The test compounds were applied in triplicate at each concentration and tested in at least 2 cells (biological replicates). […]

A549 cells = assay: Immortalized cell line toxicity (WST-1), A549; type: cell-based, human; conditions: A549 lung carcinoma cell line, 24 h
Description: (§1) A hepatic cell line (HepG2), lung carcinoma cell line (A549), and kidney cell line (HKC) were used to test the cytotoxicity of investigational compounds. Cells were grown in DMEM (ThermoFisher Scientific, Waltham, MA, USA) supplemented with 10% fetal bovine serum (FBS) (ThermoFisher Scientific, Waltham, MA, USA) and 1% penicillin/streptomycin (ThermoFisher Scientific, Waltham, MA, USA) and maintained at 37°C in 5% CO2. 2.5x10^4 cells in 100 μL of DMEM with 10% FBS were added to wells of 96-well plates 24 h prior to the experiments. Compounds were serially diluted in […], and 100 μL antibiotic-free DMEM was added to the monolayer and incubated at 37°C in 5% CO2 for 24 h. At 2 h before the end of the incubation period, 10 μL of 2-(4-iodophenyl)-3-(4-nitrophenyl)-5-(2, 4-disulfophenyl)-2H-tetrazolium (WST-1) solution (Roche, Mannheim, Germany) was added to each well. WST-1 reduction was monitored at 450 nm using a Vmax microplate reader. Assays were performed in triplicate, and the percentage survival was calculated by comparing the compound-treated wells to the DMSO vehicle control wells.

S. aureus MW2 [5] = assay: Time to kill assay; type: cell-based, Staphylococcus aureus; conditions: 4 × MIC, 4 h; bactericidal = 3-log10-CFU/mL reduction
Description: S. aureus MW2, a methicillin-resistant S. aureus (MRSA) isolate, was used to determine the bacteriostatic/bactericidal properties of test compounds, as previously described ([Rajamuthiah et al., 2015]). Assays were carried out as 2 biological replicates with n=3 for each in 24 well plates (BD Biosciences, Franklin Lakes, NJ, USA). Briefly, S. aureus MW2 cells were streaked on TSB agar from a frozen glycerol stock, and after overnight incubation, a single colony was inoculated on 2 mL of TSB and incubated at 37°C with agitation. The overnight culture of S. aureus MW2 was centrifuged at 4000 g for 5 min and then washed twice with PBS and collected through centrifuged at 4000 g for 5 min. The PBS was discarded and cells were suspended in TSB and aliquoted into a 24-well plate at a density of 10^8 cells/mL as a 1 mL volume. Test compounds were added such that the final concentration was 4 × MIC, and the cultures were incubated at 37°C with agitation. At designated time intervals, 5 μL aliquots from each test condition were serially diluted in TSB and plated onto TSA (BD Biosciences, Franklin Lakes, NJ, USA). CFUs were enumerated after overnight incubation at 35°C, and data were plotted using GraphPad Prism 9.0 (San Diego, CA, USA) to report the means and standard deviation of growth as measured by CFU/mL.

[6] = Immortalized cell line toxicity (WST-1), the three cell lines together; type: cell-based; conditions: human, hkc, hepg2, a549 cells, HKC, HepG2, A549; read-out: toxicity to cell lines as multiple of the MIC
Description: as §1

HepG2 cells = assay: Immortalized cell line toxicity (WST-1), HepG2; type: cell-based, human; conditions: HepG2 liver cell line, 24 h
Description: as §1

HKC cells = assay: Immortalized cell line toxicity (WST-1), HKC; type: cell-based, human; conditions: HKC kidney cell line, 24 h
Description: as §1

S. aureus MW2 [7] = assay: Broth microdilution MIC, S. aureus MW2; type: cell-based, Staphylococcus aureus; conditions: Staphylococcus aureus, MRSA, 18 h
Description: (§2) In vitro antibiotic susceptibilities were determined using the broth microdilution assay established by the Clinical and Laboratory Standards Institute ([Clinical and Laboratory Standards Institute, 2012]). Broth microdilution assays were carried out with 2 biological replicates, each in triplicate, Mueller–Hinton broth (MHB; BD Biosciences, Franklin Lakes, NJ, USA) with a total assay volume of 100 μL in 96-well plates (BD Biosciences, Franklin Lakes, NJ, USA). Two-fold serial dilutions of compounds were prepared at a range of 0.01– 64 μg/mL in 50 μL of MHB. The initial bacterial inoculum was adjusted to OD600 0.06, 50 μL was, added to the test compounds, and then incubated at 35°C for 18 h. Post incubation, OD600 was measured using a Vmax microplate reader (Molecular Devices, San Jose, CA), and the lowest concentration of test compound that suppressed bacterial growth was reported as the MIC. Broth culture from the MIC assay (10 μL) was plated on Mueller–Hinton agar (BD Biosciences, Franklin Lakes, NJ, USA), and colony-forming units (CFUs) were enumerated after overnight incubation at 37°C.

mature S. aureus biofilm = assay: Disruption of mature biofilm; type: cell-based, Staphylococcus aureus; conditions: preformed 24 h biofilm, Alamar Blue
Description: (§3) Diluted bacterial cells were added to 100 μL of test compounds (serially diluted 16 to 0 μg/mL) and incubated for 24 h to assess the biofilm formation inhibition. For the disruption of matured biofilm, diluted cells in 100 μL were added to the 96-well plate and incubated for 24 h with no agitation. […] Biofilm assays were completed in triplicate.

A. baumannii 17978 = assay: Broth microdilution MIC, A. baumannii; type: cell-based, Acinetobacter baumannii; conditions: Acinetobacter baumannii, 17978
Description: as §2

[8] = test system: clinical isolates of S. aureus; assay: MIC against clinical isolates of S. aureus; type: cell-based; conditions: Staphylococcus aureus
Description: Broth microdilution assays were carried out with 2 biological replicates, each in triplicate, Mueller–Hinton broth (MHB; BD Biosciences, Franklin Lakes, NJ, USA) with a total assay volume of 100 μL in 96-well plates (BD Biosciences, Franklin Lakes, NJ, USA). […] The initial bacterial inoculum was adjusted to OD600 0.06, 50 μL was, added to the test compounds, and then incubated at 35°C for 18 h. Post incubation, OD600 was measured using a Vmax microplate reader (Molecular Devices, San Jose, CA), and the lowest concentration of test compound that suppressed bacterial growth was reported as the MIC.
Isolates were tested as 2 biological replicates.

E. faecium ATCC E007 = assay: Broth microdilution MIC, E. faecium; type: cell-based, Enterococcus faecium; conditions: Enterococcus faecium, ATCCE007
Description: as §2

Enterobacter (EAE 2625) = assay: Broth microdilution MIC, Enterobacter; type: cell-based, Enterobacter spp.; conditions: Enterobacter
Description: as §2

[9] = test system: S. aureus MW2 biofilm formation; assay: Biofilm formation inhibition; type: cell-based, Staphylococcus aureus; conditions: 24 h, Alamar Blue
Description: as §3

H. pylori 49503 = assay: Broth microdilution MIC, H. pylori; type: cell-based, Helicobacter pylori; conditions: Helicobacter pylori, 49503
Description: as §2

K. pneumoniae ATCC 77326 = assay: Broth microdilution MIC, K. pneumoniae; type: cell-based, Klebsiella pneumonia; conditions: Klebsiella pneumoniae, ATCC77326
Description: as §2

P. aeruginosa PA14 = assay: Broth microdilution MIC, P. aeruginosa; type: cell-based, Pseudomonas aeruginosa; conditions: Pseudomonas aeruginosa, PA14
Description: as §2

Sequence of hERG channel (Q12809 whole entry): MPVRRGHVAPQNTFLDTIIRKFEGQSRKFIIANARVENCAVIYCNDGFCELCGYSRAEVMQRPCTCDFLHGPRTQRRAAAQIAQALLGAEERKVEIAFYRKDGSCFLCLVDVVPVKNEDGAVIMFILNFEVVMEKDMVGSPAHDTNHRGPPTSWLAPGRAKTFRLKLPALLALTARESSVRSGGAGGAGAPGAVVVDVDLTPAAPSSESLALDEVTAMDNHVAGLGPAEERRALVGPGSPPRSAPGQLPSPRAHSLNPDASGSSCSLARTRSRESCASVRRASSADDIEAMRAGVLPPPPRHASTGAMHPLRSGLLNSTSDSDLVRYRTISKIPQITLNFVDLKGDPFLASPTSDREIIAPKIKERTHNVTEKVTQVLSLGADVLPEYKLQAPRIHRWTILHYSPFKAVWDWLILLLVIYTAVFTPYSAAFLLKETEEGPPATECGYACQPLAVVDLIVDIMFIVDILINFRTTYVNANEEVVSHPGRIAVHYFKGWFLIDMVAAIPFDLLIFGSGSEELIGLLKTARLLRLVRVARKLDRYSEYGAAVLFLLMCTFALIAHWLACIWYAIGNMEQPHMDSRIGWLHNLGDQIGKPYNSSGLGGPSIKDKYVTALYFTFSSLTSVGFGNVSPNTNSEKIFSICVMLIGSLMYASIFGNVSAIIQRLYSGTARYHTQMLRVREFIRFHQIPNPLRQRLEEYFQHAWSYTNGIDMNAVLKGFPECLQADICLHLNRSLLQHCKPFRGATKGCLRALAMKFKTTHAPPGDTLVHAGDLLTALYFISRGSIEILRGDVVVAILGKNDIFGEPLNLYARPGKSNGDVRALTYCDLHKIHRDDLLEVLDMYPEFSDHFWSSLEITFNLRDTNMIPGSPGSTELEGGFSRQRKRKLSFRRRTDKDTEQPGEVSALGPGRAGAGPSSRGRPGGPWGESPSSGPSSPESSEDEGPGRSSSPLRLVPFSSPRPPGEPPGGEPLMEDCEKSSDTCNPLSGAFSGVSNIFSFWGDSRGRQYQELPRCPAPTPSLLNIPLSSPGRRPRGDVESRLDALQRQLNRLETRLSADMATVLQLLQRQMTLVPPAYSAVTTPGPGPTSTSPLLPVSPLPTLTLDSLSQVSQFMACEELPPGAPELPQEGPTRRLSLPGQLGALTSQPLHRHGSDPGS
Sequence of S. aureus TrxR (P66011 whole entry): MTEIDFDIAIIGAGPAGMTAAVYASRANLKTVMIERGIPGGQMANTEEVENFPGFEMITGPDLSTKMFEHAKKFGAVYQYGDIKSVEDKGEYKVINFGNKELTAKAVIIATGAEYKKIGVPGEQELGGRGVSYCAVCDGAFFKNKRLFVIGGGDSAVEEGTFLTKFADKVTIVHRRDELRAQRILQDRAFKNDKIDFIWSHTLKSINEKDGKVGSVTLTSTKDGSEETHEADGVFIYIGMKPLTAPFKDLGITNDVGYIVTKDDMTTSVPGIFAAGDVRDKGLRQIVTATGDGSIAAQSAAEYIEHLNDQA

SMILES: CC(C)(C)c1ccc(S(=O)[O-])cc1.[Au+].c1ccc(P(c2ccccc2)c2ccccc2)cc1 [AU5]
- solubility at 1 h [1]: 6.5 µg/mL
- IC50 (S. aureus TrxR): 1830 nM
- LD50 ([2]; renal proximal tubule epithelial cells): 2 µg/mL
- LD50 [3]: ~6 µg/mL
- solubility at 2 h ([4]; PBS, 2 Hour, highest concentration with no detectable precipitate, read-out: Solubility Limit): 3.13 µM
- solubility at 2 h ([4]; pbs, read-out: Solubility in PBS converted to mass concentration): 2.03 µg/mL
- IC50 (hERG channel): 3160 nM
- LD50 (A549 cells): approximately 4 μg/mL
- bactericidal versus bacteriostatic nature (time-to-kill kinetics) (S. aureus MW2 [5]): bactericidal; also recorded: bacteriocidal
- selectivity ratio at 24 h [6]: 16
- LD50 (HepG2 cells): approximately 4 μg/mL
- LD50 (HKC cells): approximately 4 μg/mL

SMILES: CN[C@H](CC(C)C)C(=O)N[C@H]1C(=O)N[C@@H](CC(N)=O)C(=O)N[C@H]2C(=O)N[C@H]3C(=O)N[C@H](C(=O)N[C@H](C(=O)O)c4cc(O)cc(O)c4-c4cc3ccc4O)[C@H](O)c3ccc(c(Cl)c3)Oc3cc2cc(c3O[C@@H]2O[C@H](CO)[C@@H](O)[C@H](O)[C@H]2O[C@H]2C[C@](C)(N)[C@H](O)[C@H](C)O2)Oc2ccc(cc2Cl)[C@H]1O [Vancomycin]
- MIC (S. aureus MW2 [7]): 1 µg/mL (≈ 0.69 µM)
- concentration that significantly reduced mature biofilm (mature S. aureus biofilm): 2 µg/mL
- MIC (A. baumannii 17978): > 64 µg/mL
- impact on renal proximal tubule epithelial cells (in words) ([2]; at the tested concentrations): did not impact
- MIC ([8]; isolate BFSA12): 1 µg/mL (≈ 0.69 µM)
- MIC ([8]; isolate BFSA13): 1 µg/mL (≈ 0.69 µM)
- MIC ([8]; isolate BFSA15): 1 µg/mL (≈ 0.69 µM)
- MIC ([8]; isolate BFSA16): 1 µg/mL (≈ 0.69 µM)
- MIC ([8]; isolate BFSA17): 1 µg/mL (≈ 0.69 µM)
- MIC ([8]; isolate BFSA18): 2 µg/mL (≈ 1.38 µM)
- MIC ([8]; isolate BFSA19): 1 µg/mL (≈ 0.69 µM)
- MIC ([8]; isolate BFSA20): 1 µg/mL (≈ 0.69 µM)
- MIC ([8]; isolate BFSA21): 2 µg/mL (≈ 1.38 µM)
- MIC ([8]; isolate BFSA22): 2 µg/mL (≈ 1.38 µM)
- MIC ([8]; isolate BFSA24): 1 µg/mL (≈ 0.69 µM)
- MIC ([8]; isolate BFSA26): 2 µg/mL (≈ 1.38 µM)
- MIC ([8]; isolate BFSA29): 1 µg/mL (≈ 0.69 µM)
- MIC ([8]; isolate BFSA30): 1 µg/mL (≈ 0.69 µM)
- MIC ([8]; isolate BFSA31): 2 µg/mL (≈ 1.38 µM)
- MIC ([8]; isolate BFSA32): 2 µg/mL (≈ 1.38 µM)
- MIC ([8]; isolate BFSA33): 2 µg/mL (≈ 1.38 µM)
- MIC ([8]; isolate BFSA34): 1 µg/mL (≈ 0.69 µM)
- MIC ([8]; isolate BFSA35): 1 µg/mL (≈ 0.69 µM)
- MIC ([8]; isolate BFSA36): 2 µg/mL (≈ 1.38 µM)
- MIC ([8]; isolate BFSA37): 1 µg/mL (≈ 0.69 µM)
- MIC ([8]; isolate BFSA38): 1 µg/mL (≈ 0.69 µM)
- MIC ([8]; isolate BFSA39): 1 µg/mL (≈ 0.69 µM)
- MIC ([8]; isolate BFSA148): 1 µg/mL (≈ 0.69 µM)
- MIC ([8]; isolate BFSA149): 2 µg/mL (≈ 1.38 µM)
- MIC ([8]; isolate BFSA150): 1 µg/mL (≈ 0.69 µM)
- MIC ([8]; isolate BFSA151): 1 µg/mL (≈ 0.69 µM)
- MIC ([8]; isolate BFSA152): 2 µg/mL (≈ 1.38 µM)
- MIC ([8]; isolate BFSA153): 2 µg/mL (≈ 1.38 µM)
- MIC ([8]; isolate BFSA155): 1 µg/mL (≈ 0.69 µM)
- MIC (E. faecium ATCC E007): 1 µg/mL (≈ 0.69 µM)
- MIC (Enterobacter (EAE 2625)): > 64 µg/mL
- concentration that inhibited biofilm formation (P<0.01) [9]: 1 µg/mL
- MIC (H. pylori 49503): > 64 µg/mL
- MIC (K. pneumoniae ATCC 77326): > 64 µg/mL
- MIC (P. aeruginosa PA14): > 64 µg/mL
